Where only a bound is given, the exact number is not on record here.

The experiment has as its target T1, androgen receptor (AR-LBD) (Rattus norvegicus, UniProt P15207).
T1 construct: 5 μL of 2×AR-LBD/Fluoromone AL Red Complex contained in the kit; purchased Invitrogen
T1 sequence (P15207 651-882 limits assumed): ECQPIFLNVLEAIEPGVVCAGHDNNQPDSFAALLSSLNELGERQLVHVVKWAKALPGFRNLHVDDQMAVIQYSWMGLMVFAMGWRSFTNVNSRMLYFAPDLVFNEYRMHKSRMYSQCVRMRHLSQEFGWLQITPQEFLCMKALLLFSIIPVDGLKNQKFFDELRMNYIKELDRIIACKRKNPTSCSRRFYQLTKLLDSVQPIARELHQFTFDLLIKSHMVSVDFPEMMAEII
Kind of experiment: Evaluation of androgen receptor affinity (PolarScreen Androgen Receptor Competitor Assay Kit, Red; fluorescence polarization). The settings on record: 22° C. for 5 hours, relative to binding rate of 1 μM DHT, read-out: AR affinity (pEC50) (converted). On the procedure: Evaluation of an Androgen Receptor Affinity
To examine the interaction of a compound with an androgen receptor, evaluation was carried out in accordance with the following procedure using PolarScreen™ Androgen Receptor Competitor Assay Kit, Red (Invitrogen). To 2 wells each of a 384 well black plate was added 5 μL of the compound solution. To each well was added 5 μL of 2×AR-LBD/Fluoromone AL Red Complex contained in the kit and the samples were reacted at 22° C. for 5 hours. After 5 hours of the reaction, fluorescence polarization was measured and the affinity was evaluated. The affinity of the compound was determined by comparing to the binding rate of 1 μM of dihydrotestosterone (DHT), and quantified the logarithm value (pEC50) of reciprocal value of the effective concentration of the compound which is equal to 50% of the binding rate by applying a 4 parameter goodness-of-fit calculation.
For orientation: Fluorescence polarisation rises when a labelled molecule tumbles more slowly, as on binding a larger partner.
In the case of `Cc1sc(N(Cc2ccncc2)c2ccc(C#N)cc2)nc1C(=O)NS(C)(=O)=O` [Compound 44, 2-[4-cyano-N-(4-pyridylmethyl)anilino]-5-methyl-N-methylsulfonyl-thiazole-4-carboxamide], the EC50 is over 2000 nM.

Turning to `Cc1sc(N(CCc2coc3ccccc23)Cc2ccccc2)nc1C(=O)NS(C)(=O)=O` [Compound 707, 2-[2-(benzofuran-3-yl)ethyl-benzyl-amino]-5-methyl-N-methylsulfonyl-thiazole-4-carboxamide], the EC50 was over 2000 nM.

`Cc1sc(N(CCc2ccncc2)Cc2ccccc2)nc1C(=O)NS(C)(=O)=O` [Compound 743, 2-[benzyl-[2-(4-pyridyl)ethyl]amino]-5-methyl-N-methylsulfonyl-thiazole-4-carboxamide]: the EC50 is 631 nM.

Take `Cc1sc(N(Cc2ccccc2)c2ccc(O)cc2)nc1C(=O)NS(C)(=O)=O` [Example 206, 2-(N-benzyl-4-hydroxy-anilino)-5-methyl-N-methylsulfonyl-thiazole-4-carboxamide]: the EC50 was over 2000 nM.

In the case of `Cc1sc(N(C[Si](C)(C)c2ccccc2)c2ccc(C#N)cc2)nc1C(=O)NS(C)(=O)=O` [Compound 477, 2-[4-cyano-N-[[dimethyl(phenyl)silyl]methyl]anilino]-5-methyl-N-methylsulfonyl-thiazole-4-carboxamide], the EC50 is over 2000 nM.

Turning to `CC[C@H](C)CN(c1ccc(C#N)cc1)c1nc(C(=O)NS(C)(=O)=O)c(C)s1` [Compound 446, 2-(4-cyano-N-[(2S)-2-methylbutyl]anilino)-5-methyl-N-methylsulfonyl-thiazole-4-carboxamide], the EC50 was 316 nM.

For the molecule `Cc1noc(C)c1CCN(Cc1ccccc1)c1nc(C(=O)NS(C)(=O)=O)c(C)s1` [Compound 691, 2-[benzyl-[2-(3,5-dimethylisoxazol-4-yl)ethyl]amino]-5-methyl-N-methylsulfonyl-thiazole-4-carboxamide], the EC50 was over 2000 nM.

`Cc1sc(N(Cc2ccccc2)c2cc3ccccc3cn2)nc1C(=O)NS(C)(=O)=O` [Compound 745, 2-[benzyl(3-isoquinolyl)amino]-5-methyl-N-methylsulfonyl-thiazole-4-carboxamide]: the EC50 is over 2000 nM.

Turning to `Cc1sc(N(Cc2ccc(OCCN3CCCC3=O)cc2)c2ccc(C#N)cc2)nc1C(=O)NS(C)(=O)=O` [Compound 575, 2-[4-cyano-N-[[4-[2-(2-oxopyrrolidin-1-yl)ethoxy]phenyl]methyl]anilino]-5-methyl-N-methylsulfonyl-thiazole-4-carboxamide], the EC50 was 398 nM.

Take `Cc1sc(N(Cc2ccccc2)c2cccc(CO)c2)nc1C(=O)NS(C)(=O)=O` [Example 229, 2-[N-benzyl-3-(hydroxymethyl)anilino]-5-methyl-N-methylsulfonyl-thiazole-4-carboxamide]: the EC50 was over 2000 nM.

In the case of `Cc1sc(N(Cc2ccccc2)c2cccc(OCCO)c2)nc1C(=O)NS(C)(=O)=O` [Example 210, 2-[N-benzyl-3-(2-hydroxyethoxy)anilino]-5-methyl-N-methylsulfonyl-thiazole-4-carboxamide], the EC50 is over 2000 nM.

For the molecule `Cc1ccc(CN(c2ccc(C#N)cc2)c2nc(C(=O)NS(C)(=O)=O)c(Br)s2)cc1` [Example 246, 5-bromo-2-[4-cyano-N-(p-tolylmethyl)anilino]-N-methylsulfonyl-thiazole-4-carboxamide], the EC50 is 39.8 nM.

In the case of `Cc1sc(N(CCCc2ccccc2)Cc2ccccc2)nc1C(=O)NS(C)(=O)=O` [Example 297, 2-[benzyl(3-phenylpropyl)amino]-5-methyl-N-methylsulfonyl-thiazole-4-carboxamide], the EC50 is 501 nM.

Regarding `Cc1cccc(CN(c2ccc(C#N)cc2)c2nc(C(=O)NS(C)(=O)=O)c(Br)s2)c1` [Example 245, 5-bromo-2-[4-cyano-N-(m-tolylmethyl)anilino]-N-methylsulfonyl-thiazole-4-carboxamide], the EC50 is 79.4 nM.

Take `Cc1sc(N(Cc2ccccc2)Cc2cccnc2)nc1C(=O)NS(C)(=O)=O` [Example 293, 2-[benzyl(3-pyridylmethyl)amino]-5-methyl-N-methylsulfonyl-thiazole-4-carboxamide]: the EC50 was over 2000 nM.

As to `CNC(=O)COc1ccc(N(Cc2ccccc2)c2nc(C(=O)NS(C)(=O)=O)c(C)s2)cc1` [Example 213, 2-[N-benzyl-4-[2-(methylamino)-2-oxo-ethoxy]anilino]-5-methyl-N-methylsulfonyl-thiazole-4-carboxamide], the EC50 is over 2000 nM.

Take `Cc1sc(N(Cc2ccccc2)c2ccc(F)c(F)c2)nc1C(=O)NS(C)(=O)=O` [Compound 48, 2-(N-benzyl-3,4-difluoro-anilino)-5-methyl-N-methylsulfonyl-thiazole-4-carboxamide]: the EC50 is 398 nM.

For `Cc1sc(N(Cc2ccccc2)c2ccc(CO)cc2)nc1C(=O)NS(C)(=O)=O` [Example 226, 2-[N-benzyl-4-(hydroxymethyl)anilino]-5-methyl-N-methylsulfonyl-thiazole-4-carboxamide], the EC50 is over 2000 nM.

As for `Cc1sc(N(Cc2ccccc2)c2ccc(C#N)cc2)nc1C(=O)NS(=O)(=O)c1ccccc1` [Compound 375, N-(benzenesulfonyl)-2-(N-benzyl-4-cyano-anilino)-5-methyl-thiazole-4-carboxamide], the EC50 is over 2000 nM.

With `Cc1sc(N(Cc2ccccc2)C2CCCC2)nc1C(=O)NS(C)(=O)=O` [Compound 669, 2-[benzyl(cyclopentyl)amino]-5-methyl-N-methylsulfonyl-thiazole-4-carboxamide], the EC50 was 631 nM.

As to `Cc1sc(N(CCc2ccc(C#N)cc2)CC2CCCCC2)nc1C(=O)NS(=O)(=O)C(F)(F)F` [Compound 719, 2-[2-(4-cyanophenyl)ethyl-(cyclohexylmethyl)amino]-5-methyl-N-(trifluoromethylsulfonyl)thiazole-4-carboxamide], the EC50 was over 2000 nM.

In the case of `Cc1sc(N(CC(O)c2ccccc2)c2ccc(C#N)cc2)nc1C(=O)NS(C)(=O)=O` (stereo not drawn) [Compound 468, 2-(4-cyano-N-(2-hydroxy-2-phenyl-ethyl)anilino)-5-methyl-N-methylsulfonyl-thiazole-4-carboxamide], the EC50 was over 2000 nM.

For `COc1ccc(CCN(Cc2ccccc2)c2nc(C(=O)NS(C)(=O)=O)c(C)s2)cc1OC` [Example 307, 2-[benzyl-[2-(3,4-dimethoxyphenyl)ethyl]amino]-5-methyl-N-methylsulfonyl-thiazole-4-carboxamide], the EC50 was over 2000 nM.

As for `Cc1sc(N(Cc2ccccc2C#N)c2ccc(C#N)cc2)nc1C(=O)NS(C)(=O)=O` [Compound 8, 2-[4-cyano-N-[(2-cyanophenyl)methyl]anilino]-5-methyl-N-methylsulfonyl-thiazole-4-carboxamide], the EC50 was over 2000 nM.

`Cc1sc(N(Cc2ccccc2)c2cccc(OCCOCc3ccccc3)c2)nc1C(=O)NS(C)(=O)=O` [Example 208, 2-[N-benzyl-3-(2-benzyloxyethoxy)anilino]-5-methyl-N-methylsulfonyl-thiazole-4-carboxamide]: the EC50 is over 2000 nM.

In the case of `Cc1sc(N(Cc2ccccc2OC(F)(F)F)c2ccc(C#N)cc2)nc1C(=O)NS(C)(=O)=O` [Compound 101, 2-[4-cyano-N-[[2-(trifluoromethoxy)phenyl]methyl]anilino]-5-methyl-N-methylsulfonyl-thiazole-4-carboxamide], the EC50 was 631 nM.

Consider `Cc1sc(N(Cc2cccc3cnccc23)c2ccc(C#N)cc2)nc1C(=O)NS(C)(=O)=O` [Compound 402, 2-[4-cyano-N-(5-isoquinolylmethyl)anilino]-5-methyl-N-methylsulfonyl-thiazole-4-carboxamide], for which the EC50 is 1000 nM.

With `Cc1nc(CCN(c2ccc(C#N)cc2)c2nc(C(=O)NS(C)(=O)=O)c(C)s2)cs1` [Compound 135, 2-[4-cyano-N-[2-(2-methylthiazol-4-yl)ethyl]anilino]-5-methyl-N-methylsulfonyl-thiazole-4-carboxamide], the EC50 is over 2000 nM.

As to `Cc1sc(N(Cc2ccccc2)c2ccccn2)nc1C(=O)NS(C)(=O)=O` [Compound 408, 2-[benzyl(2-pyridyl)amino]-5-methyl-N-methylsulfonyl-thiazole-4-carboxamide], the EC50 was over 2000 nM.

For `Cc1sc(N(Cc2ccccc2)c2ccc(C#N)cc2)nc1C(=O)NS(=O)(=O)CCN1CCOCC1` [Compound 429, 2-(N-benzyl-4-cyano-anilino)-5-methyl-N-(2-morpholinoethylsulfonyl)thiazole-4-carboxamide], the EC50 was over 2000 nM.

As to `Cc1sc(N(Cc2ccccc2)c2ccc(CCOCc3ccccc3)cc2)nc1C(=O)NS(C)(=O)=O` [Example 235, 2-[N-benzyl-4-(2-benzyloxyethyl)anilino]-5-methyl-N-methylsulfonyl-thiazole-4-carboxamide], the EC50 was over 2000 nM.

With `Cc1sc(N(CC2CCCC2O)c2ccc(C#N)cc2)nc1C(=O)NS(C)(=O)=O` (stereo not drawn) [Compound 405, 2-[4-cyano-N-[(2-hydroxycyclopentyl)methyl]anilino]-5-methyl-N-methylsulfonyl-thiazole-4-carboxamide], the EC50 was over 2000 nM.

With `Cc1oc(N(Cc2ccc(C#N)cc2)c2ccc(C#N)cc2)nc1C(=O)NS(C)(=O)=O` [Compound 615, 2-[4-cyano-N-[(4-cyanophenyl)methyl]anilino]-5-methyl-N-methylsulfonyl-oxazole-4-carboxamide], the EC50 is 398 nM.

(Values after patent US10689354B2, “Aminoazole derivative” (Teijin Pharma Limited, priority 2015, dated 2020).)
